Measurements taken from patent publication US11051515B2, “3-acyl-benzamides and their use as herbicides” (Bayer Aktiengesellschaft, priority 2017, dated 2021).

Key:
SETVI [1] = assay: Post-emergence action against SETVI; format: in vivo, Setaria viridis; conditions: post-emergence, dosage 80 g/ha, visual assessment about 3 weeks after treatment vs untreated controls
In short: (§1)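 Post-emergence foliar spray on greenhouse plants at the one-leaf stage, using wettable-powder or emulsion-concentrate formulations in water (600 to […], plus 0.2% wetting agent). Damage scored by eye roughly 3 weeks later against untreated plants: 0% = like control, 100% = dead.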

ABUTH [2] = assay: Post-emergence action against ABUTH; format: in vivo, Abutilon theophrasti; conditions: post-emergence, dosage 80 g/ha, visual assessment about 3 weeks after treatment vs untreated controls
In short: as §1

ABUTH [3] = assay: Pre-emergence action against ABUTH; format: in vivo, Abutilon theophrasti; conditions: pre-emergence, dosage 320 g/ha, scored visually after 3 weeks vs untreated controls
In short: (§2)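 Seeds sown in sandy loam in wood-fiber pots and covered with soil. Greenhouse growth; visual damage scored after 3 weeks versus untreated controls (100% = dead, 0% = like control).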

CYPES [4] = assay: Post-emergence action against CYPES; format: in vivo, Cyperus esculentus; conditions: post-emergence, dosage 80 g/ha, visual assessment about 3 weeks after treatment vs untreated controls
In short: as §1

VERPE [5] = assay: Pre-emergence action against VERPE; format: in vivo, Veronica persica; conditions: Dosage 320 g/ha, pre-emergence
In short: as §2

VIOTR [6] = assay: Pre-emergence action against VIOTR; format: in vivo, Viola tricolor; conditions: Dosage 320 g/ha, pre-emergence
In short: as §2

MATIN [7] = assay: Pre-emergence action against MATIN; format: in vivo, Matricaria inodora; conditions: Dosage 320 g/ha, pre-emergence
In short: as §2

CYPES [8] = assay: Pre-emergence action against CYPES; format: in vivo, Cyperus esculentus; conditions: pre-emergence, dosage 320 g/ha, scored visually after 3 weeks vs untreated controls
In short: as §2

PHBPU [9] = assay: Post-emergence action against PHBPU; format: in vivo, Pharbitis purpurea; conditions: post-emergence, dosage 80 g/ha
In short: as §1

AVEFA [10] = assay: Post-emergence action against AVEFA; format: in vivo, Avena fatua; conditions: post-emergence, dosage 80 g/ha, visual assessment about 3 weeks after treatment vs untreated controls
In short: as §1

STEME [11] = assay: Pre-emergence action against STEME; format: in vivo, Stellaria media; conditions: Dosage 320 g/ha, pre-emergence
In short: as §2

LOLRI [12] = assay: Post-emergence action against LOLRI; format: in vivo, Lolium rigidum; conditions: dosage 80 g/ha, visual assessment about 3 weeks after treatment vs untreated controls
Description: Seeds of monocotyledonous and dicotyledonous weed and crop plants are laid out in sandy loam soil in wood-fiber pots, covered with soil and cultivated in a greenhouse under good growth conditions. 2 to 3 weeks after sowing, the test plants are treated at the one-leaf stage. The compounds of the invention, formulated in the form of wettable powders (WP) or as emulsion concentrates (EC), are then sprayed onto the green parts of the plants in the form of an aqueous suspension or emulsion at a water application rate equating to […], with addition of 0.2% wetting agent. After the test plants have been left to stand in the greenhouse under optimal growth conditions for about 3 weeks, the action of the preparations is assessed visually in comparison to untreated controls (herbicidal action in percent (%): 100% activity=the plants have died, 0% activity=like control plants). […] At the same time, inventive compounds leave Gramineae crops such as barley, wheat, rye, millet/Sorghum, corn or rice virtually undamaged when applied post-emergence, even at high active ingredient dosages. In addition, some substances are also harmless to dicotyledonous crops such as soya, cotton, oilseed rape, sugar beet or potatoes. Some of the compounds according to the invention have high selectivity and are therefore suitable for controlling unwanted vegetation in agricultural crops by the post-emergence method. The data of Tables B18 to B34 below illustrate, in an exemplary manner, the […] herbicidal action of the compounds according to the invention, the herbicidal activity being stated in percent.

PHBPU [13] = assay: Pre-emergence action against PHBPU; format: in vivo, Pharbitis purpurea; conditions: Dosage 320 g/ha, pre-emergence
In short: as §2

ECHCG [14] = assay: Pre-emergence action against ECHCG; format: in vivo, Echinochloa crus-galli; conditions: pre-emergence, dosage 320 g/ha, scored visually after 3 weeks vs untreated controls
In short: as §2

STEME [15] = assay: Post-emergence action against STEME; format: in vivo, Stellaria media; conditions: post-emergence, dosage 80 g/ha
In short: as §1

VIOTR [16] = assay: Post-emergence action against VIOTR; format: in vivo, Viola tricolor; conditions: post-emergence, dosage 80 g/ha
In short: as §1

AVEFA [17] = assay: Pre-emergence action against AVEFA; format: in vivo, Avena fatua; conditions: dosage 320 g/ha, scored visually after 3 weeks vs untreated controls
In short: as §2

ECHCG [18] = assay: Post-emergence action against ECHCG; format: in vivo, Echinochloa crus-galli; conditions: post-emergence, dosage 80 g/ha, visual assessment about 3 weeks after treatment vs untreated controls
In short: as §1

SETVI [19] = assay: Pre-emergence action against SETVI; format: in vivo, Setaria viridis; conditions: pre-emergence, dosage 320 g/ha, scored visually after 3 weeks vs untreated controls
In short: as §2

ALOMY [20] = assay: Pre-emergence action against ALOMY; format: in vivo, Alopecurus myosuroides; conditions: dosage 320 g/ha; pre-emergence; scored visually after 3 weeks vs untreated controls; 100% = plants have died, 0% = like control plants
In short: as §2

AMARE [21] = assay: Pre-emergence action against AMARE; format: in vivo, Amaranthus retroflexus; conditions: pre-emergence, dosage 320 g/ha, scored visually after 3 weeks vs untreated controls
In short: as §2

VERPE [22] = assay: Post-emergence action against VERPE; format: in vivo, Veronica persica; conditions: dosage 80 g/ha
In short: as §1

ALOMY [23] = assay: Post-emergence action against ALOMY; format: in vivo, Alopecurus myosuroides; conditions: Dosage 80 g/ha, post-emergence
In short: as §1

POLCO = assay: Pre-emergence action against POLCO; format: in vivo, Polygonum convolvulus; conditions: Dosage 320 g/ha, pre-emergence
In short: as §2

LOLRI [24] = assay: Pre-emergence action against LOLRI; format: in vivo, Lolium rigidum; conditions: dosage 320 g/ha, scored visually after 3 weeks vs untreated controls
In short: as §2

AMARE [25] = assay: Post-emergence action against AMARE; format: in vivo, Amaranthus retroflexus; conditions: post-emergence, dosage 80 g/ha, visual assessment about 3 weeks after treatment vs untreated controls
In short: as §1

MATIN [26] = assay: Post-emergence action against MATIN; format: in vivo, Matricaria inodora; conditions: post-emergence, dosage 80 g/ha, visual assessment about 3 weeks after treatment vs untreated controls
In short: as §1

| Structure (SMILES) | Post-emergence action against SETVI (herbicidal action in percent) (SETVI [1]) [%] | Post-emergence action against ABUTH (herbicidal action in percent) (ABUTH [2]) [%] | Pre-emergence action against ABUTH (herbicidal activity) (ABUTH [3]) [%] | Pre-emergence action against VERPE (VERPE [5]) [%] | Pre-emergence action against VIOTR (VIOTR [6]) [%] | Pre-emergence action against MATIN (MATIN [7]) [%] | Pre-emergence action against CYPES (herbicidal activity) (CYPES [8]) [%] | Post-emergence action against PHBPU (PHBPU [9]) | Pre-emergence action against STEME (STEME [11]) [%] | Post-emergence action against LOLRI (herbicidal action in percent) (LOLRI [12]) [%] | Pre-emergence action against PHBPU (PHBPU [13]) [%] | Pre-emergence action against ECHCG (herbicidal activity) (ECHCG [14]) [%] | Post-emergence action against STEME (STEME [15]) | Post-emergence action against VIOTR (VIOTR [16]) | Pre-emergence action against AVEFA (herbicidal activity) (AVEFA [17]) [%] | Post-emergence action against ECHCG (herbicidal action in percent) (ECHCG [18]) [%] | SETVI (Table B8, pre-emergence herbicidal activity) (SETVI [19]) [%] | Pre-emergence action against ALOMY (herbicidal activity in percent) (ALOMY [20]) [%] | Pre-emergence action against AMARE (herbicidal activity) (AMARE [21]) [%] | Post-emergence action against VERPE (VERPE [22]) | other results |
| --- | --- | --- | --- | --- | --- | --- | --- | --- | --- | --- | --- | --- | --- | --- | --- | --- | --- | --- | --- | --- | --- |
| Cn1nnnc1NC(=O)c1ccc(C(F)(F)F)c(C(=O)CCl)c1Cl [1-145] | 100 | 100 | 100 | 100 | 100 | 100 | 100 | 100 | 100 | 80 | 100 | 100 | 100 | 100 | 100 | 100 | 100 | 100 | 100 | 100 | Post-emergence action against CYPES (herbicidal action in percent) (CYPES [4]): 100%; Post-emergence action against AVEFA (herbicidal action in percent) (AVEFA [10]): 90%; Post-emergence action against ALOMY (ALOMY [23]): 90%; Pre-emergence action against POLCO (POLCO): 100%; Pre-emergence action against LOLRI (herbicidal activity) (LOLRI [24]): 100%; Post-emergence action against AMARE (herbicidal action in percent) (AMARE [25]): 100% |
| CCn1nnnc1NC(=O)c1ccc(C(F)(F)F)c(C(=O)C2CC2C)c1Cl (stereo not shown) [2-148] | 90 | 90 | 100 | 100 | 100 | 100 | 90 | 90 | 90 | 80 | 90 | 100 | 90 | 90 | 90 | 90 | 100 | 90 | 100 | 90 | Post-emergence action against MATIN (herbicidal action in percent) (MATIN [26]): 90%; Post-emergence action against ALOMY (ALOMY [23]): 90%; Pre-emergence action against POLCO (POLCO): 90%; Pre-emergence action against LOLRI (herbicidal activity) (LOLRI [24]): 90%; Post-emergence action against AMARE (herbicidal action in percent) (AMARE [25]): 90% |
| COCC(=O)c1c(C(F)(F)F)ccc(C(=O)Nc2nnnn2C)c1Cl [1-144] | 100 | 100 | 100 | 100 | 100 | 100 | 100 | 100 | 100 | 80 | 100 | 100 | 100 | 100 | 100 | 90 | 100 | 100 | 100 | 90 | Post-emergence action against MATIN (herbicidal action in percent) (MATIN [26]): 90%; Post-emergence action against ALOMY (ALOMY [23]): 90%; Pre-emergence action against POLCO (POLCO): 80%; Pre-emergence action against LOLRI (herbicidal activity) (LOLRI [24]): 100%; Post-emergence action against AMARE (herbicidal action in percent) (AMARE [25]): 100% |
